# Read-outs that look alike come from different tables or passages of the source.
# Columns and labels:
# Assay type in all cases: cell-based
# [1] = system: S. aureus Vat A streptogramin; assay: MIC, Gram-positive bacteria: S. aureus Vat A streptogramin; settings: Staphylococcus aureus; Gram-positive; column 5; read-out: Minimal Inhibitory Concentration (MIC) S. aureus Vat A streptogramin
# E. faecium ATCC 35667 = assay: MIC, Gram-positive bacteria: E. faecium ATCC 35667; settings: Enterococcus faecium, ATCC35667, column 2, read-out: Minimal Inhibitory Concentration (MIC) E. faecium ATCC 35667
# [2] = system: K. pneumoniae multidrug-resistant; assay: MIC, Gram-negative bacteria: K. pneumoniae multidrug-resistant; settings: Klebsiella pneumoniae, read-out: Minimal Inhibitory Concentration (MIC) K. pneumoniae multidrug-resistant
# Gram-Negative Organisms = assay: microbe, parasite or virus in culture
# S. pneumoniae = assay: MIC, Gram-positive bacteria: S. pneumoniae; settings: Streptococcus pneumoniae, column 10, read-out: Minimal Inhibitory Concentration (MIC) S. pneumoniae
# E. faecalis = assay: MIC, Gram-positive bacteria: E. faecalis; settings: Enterococcus faecalis, column 1, read-out: Minimal Inhibitory Concentration (MIC) E. faecalis
# H. influenzae ATCC 49247 = assay: MIC, Gram-negative bacteria: H. influenzae ATCC 49247; settings: Haemophilus influenzae, ATCC49247, read-out: Minimal Inhibitory Concentration (MIC) H. influenzae ATCC 49247
# [3] = system: P. aeruginosa MDR clinical isolate; assay: MIC, Gram-negative bacteria: P. aeruginosa MDR clinical isolate; settings: Pseudomonas aeruginosa, read-out: Minimal Inhibitory Concentration (MIC) P. aeruginosa MDR clinical isolate
# P. aeruginosa ATCC 27853 = assay: MIC, Gram-negative bacteria: P. aeruginosa ATCC 27853; settings: Pseudomonas aeruginosa, ATCC27853, read-out: Minimal Inhibitory Concentration (MIC) P. aeruginosa ATCC 27853
# E. faecium VRE; vanA = assay: MIC, Gram-positive bacteria: E. faecium VRE; vanA; settings: Enterococcus faecium, column 3, read-out: Minimal Inhibitory Concentration (MIC) E. faecium VRE
# S. aureus = assay: MIC, Gram-positive bacteria: S. aureus (strains not named); settings: Staphylococcus aureus, read-out: Minimal Inhibitory Concentration (MIC) S. aureus
# [4] = system: S. aureus Linezolid-resistant; cfr; assay: MIC, Gram-positive bacteria: S. aureus Linezolid-resistant; cfr; settings: Staphylococcus aureus, column 9, read-out: Minimal Inhibitory Concentration (MIC) S. aureus Linezolid-resistant
# [5] = Acinetobacter baumannii, ATCC19606, read-out: Minimal Inhibitory Concentration (MIC), A. baumannii ATCC 19606
# [6] = Escherichia coli, ATCC25922, read-out: Minimal Inhibitory Concentration (MIC), E. coli ATCC 25922
# [7] = Escherichia coli, read-out: Minimal Inhibitory Concentration (MIC), E. coli BAS2006, OMP C, OMP F
# [8] = Escherichia coli, read-out: Minimal Inhibitory Concentration (MIC), E. coli olC efflux defective
# [9] = Escherichia coli, read-out: Minimal Inhibitory Concentration (MIC), E. coli permeability mutant BAS1314, IMP4213ZAB::TN10
# [10] = Escherichia coli, read-out: Minimal Inhibitory Concentration (MIC), E. coli ΔompC768, KanR insert
# [11] = Klebsiella pneumoniae, ATCC43816, read-out: Minimal Inhibitory Concentration (MIC), K. pneumoniae ATCC 43816
# [12] = first unnamed S. aureus column (c4)
# [13] = fourth unnamed S. aureus column (c8)
# [14] = second unnamed S. aureus column (c6)
# [15] = third unnamed S. aureus column (c7)
SMILES,MIC [1] [µg/mL],MIC (E. faecium ATCC 35667) [µg/mL],MIC [2] [µg/mL],MIC (Gram-Negative Organisms; [5]) [µg/mL],MIC (Gram-Negative Organisms; [6]) [µg/mL],MIC (Gram-Negative Organisms; [7]) [µg/mL],MIC (Gram-Negative Organisms; [8]) [µg/mL],MIC (Gram-Negative Organisms; [9]) [µg/mL],MIC (Gram-Negative Organisms; [11]) [µg/mL],MIC (S. pneumoniae) [µg/mL],MIC (E. faecalis) [µg/mL],MIC (H. influenzae ATCC 49247) [µg/mL],MIC [3] [µg/mL],MIC (P. aeruginosa ATCC 27853) [µg/mL],MIC (E. faecium VRE; vanA) [µg/mL],MIC (S. aureus; [12]) [µg/mL],MIC (S. aureus; [13]) [µg/mL],MIC (S. aureus; [14]) [µg/mL],MIC (S. aureus; [15]) [µg/mL],MIC [4] [µg/mL],also measured
CC1=C\[C@@H](O)CC(=O)Cc2nc(co2)C(=O)N2CCC[C@@H]2C(=O)O[C@H]([C@H](C)COC(=O)Nc2ccnc(Br)c2)[C@H](C)/C=C/C(=O)NC\C=C\1 [SA0110206],> 64,8,> 64,> 64,> 64,16,2,2,> 64,8,> 64,4,> 64,> 64,16,16,16,16,32,> 64,MIC (Gram-Negative Organisms; [10]): > 64 µg/mL
"CC1=C\[C@@H](O)CC(=O)Cc2nc(co2)C(=O)N2CCC[C@@H]2C(=O)O[C@H](C(C)C)[C@H](C)/C=C/C(=O)NC\C=C\1 [virginiamycin M2, Virginiamycin M2, reference compound]",> 64,4,> 64,> 64,> 64,2,2,2,> 64,8,> 64,16,> 64,> 64,8,16,8,16,32,> 64,
CC1=C\[C@@H](O)CC(=O)Cc2nc(co2)C(=O)N2CCC[C@@H]2C(=O)O[C@H]([C@H](C)COC(=O)Nc2ccc(OC(F)(F)F)cc2)[C@H](C)/C=C/C(=O)NC\C=C\1 [SA0110195],> 64,8,> 64,> 64,> 64,> 64,8,8,> 64,> 64,> 64,> 64,> 64,> 64,> 64,16,8,16,16,> 64,MIC (Gram-Negative Organisms; [10]): > 64 µg/mL
CC1=C\[C@@H](O)CC(=O)Cc2nc(co2)C(=O)N2CCC[C@@H]2C(=O)O[C@H]([C@H](C)COC(=O)Nc2cccnc2)[C@H](C)/C=C/C(=O)NC\C=C\1 [SA0110205],> 64,32,> 64,> 64,> 64,> 64,8,16,> 64,32,> 64,32,> 64,> 64,64,> 64,> 64,> 64,> 64,> 64,MIC (Gram-Negative Organisms; [10]): > 64 µg/mL
COc1ccc(NC(=O)OC[C@@H](C)[C@H]2OC(=O)[C@H]3CCCN3C(=O)c3coc(n3)CC(=O)C[C@H](O)/C=C(C)/C=C/CNC(=O)/C=C/[C@H]2C)cc1 [SA0110185],> 64,16,> 64,> 64,> 64,64,2,4,> 64,32,> 64,16,> 64,> 64,32,32,16,16,32,> 64,MIC (Gram-Negative Organisms; [10]): > 64 µg/mL
CC1=C\[C@@H](O)CC(=O)Cc2nc(co2)C(=O)N2CCC[C@@H]2C(=O)O[C@H]([C@@H](C)COC(=O)Nc2ccc(OC(F)(F)F)cc2)[C@H](C)/C=C/C(=O)NC\C=C\1 [SA0110041],> 64,8,> 64,> 64,> 64,> 64,8,8,> 64,> 64,> 64,> 64,> 64,> 64,> 64,> 64,32,> 64,> 64,> 64,
CC1=C\[C@@H](O)CC(=O)Cc2nc(co2)C(=O)N2CCC[C@@H]2C(=O)O[C@H]([C@@H](C)COC(=O)Nc2coc(C)n2)[C@H](C)/C=C/C(=O)NC\C=C\1 [SA0110095],> 64,32,> 64,> 64,> 64,32,8,16,> 64,16,> 64,64,> 64,> 64,> 64,> 64,64,> 64,> 64,> 64,
CC1=C\[C@@H](O)CC(=O)Cc2nc(co2)C(=O)N2CCC[C@@H]2C(=O)O[C@H]([C@H](C)COC(=O)Nc2cc(C)on2)[C@H](C)/C=C/C(=O)NC\C=C\1 [SA0110225],> 64,32,> 64,> 64,> 64,> 64,4,8,> 64,32,> 64,16,> 64,> 64,64,> 64,64,64,> 64,> 64,MIC (Gram-Negative Organisms; [10]): > 64 µg/mL
